Laboratory results as given in paper PMC11330772, “Unveiling the kinetic versatility of aryl-alcohol oxidases with different electron acceptors” (Frontiers in Bioengineering and Biotechnology, 2024).
Like-named read-outs stand apart in the source and are kept apart here. Blank lines part the entries; values can stand above or below the molecule they belong to.

Tests used:
BaAAO [1] = target: T1, BaAAO (Bjerkandera adusta, UniProt A0ABF7PQ87)
Description: (§4) Data were globally fitted to an equation describing a one-step process.

BaAAO [2] = target: T1, BaAAO; assay: biochemical
Description: as §4

PeAAO [3] = target: T2, PeAAO (Pleurotus eryngii, UniProt O94219)
Description: as §4

PeAAO [4] = target: T2, PeAAO; design: method as in Carro et al. (2018a); conditions: pH 6.0, 12 °C, ref Carro et al. (2018a), cited from earlier work
PeAAO [5] = target: T2, PeAAO; assay: Stopped-flow oxidative half-reaction (flavin reoxidation by O2 or BQ); conditions: PeAAO
PeAAO [6] = target: T2, PeAAO; conditions: pH 6.0, 12 °C, cited from earlier work
PeAAO [7] = target: T2, PeAAO; design: method as in Ferreira et al. (2023); conditions: alcohol substrate 4-methoxybenzyl alcohol, 50 mM phosphate, pH 6.0, 25 °C, ref Ferreira et al. (2023); cited from earlier work
PeAAO [8] = target: T2, PeAAO; assay: Steady-state bi-substrate kinetics of alcohol oxidation; format: biochemical
Description: (§1) Bi-substrate kinetics were analyzed by concurrently varying the concentration of the aforementioned alcohols and electron acceptors. Oxygen assays were carried out in a screw-cap cuvette where the alcohol was equilibrated with the desired concentration of O2 by bubbling with the appropriate O2/N2 gas mixture (4%, 10%, 21%, 44%, and 100% O2) for 10 min. Alcohol oxidation was initiated by the addition of the enzyme and followed at 285 nm for 4-methoxybenzaldehyde production and 295 nm in the case of 3-Cl-4-methoxybenzaldehyde (Δε285 = 16,950 M^−1cm^−1 and Δε295 = 15,000 M^−1cm^−1, respectively) ([Ferreira et al., 2005]). […]. BQ solutions were prepared immediately prior to use and protected from the light to avoid photodegradation.
(§2) The initial rates for bi-substrate kinetics were fitted to Eq. 1 or Eq. 2, which describe sequential and ping-pong kinetic mechanisms, respectively. […]

BaAAO [9] = target: T1, BaAAO; assay: as above; format: biochemical
Description: as §1, §2

BaAAO [10] = target: T1, BaAAO; design: method as in Ferreira et al. (2023); conditions: alcohol substrate 4-methoxybenzyl alcohol, 50 mM phosphate, pH 6.0, 25 °C, ref Ferreira et al. (2023); cited from earlier work
BaAAO [11] = target: T1, BaAAO; assay: Redox state of the enzyme during turnover (stopped-flow); format: biochemical; conditions: in the presence of O2 (air), saturating alcohol, pH 6.0, 25 °C
PeAAO [12] = target: T2, PeAAO; assay: Stopped-flow reductive half-reaction (flavin reduction by alcohol); format: biochemical
Description: (§3) Studies on the reductive half-reaction were performed by mixing AAO (∼10 μM, final concentration) with increasing concentrations of alcohols under anaerobic conditions. Observed rate constants (k obs) were calculated using global analysis and numerical integration methods, simultaneously utilizing all spectral data in the 400–800 nm region along time evolution using the ProKineticist software from Applied Photophysics.

BaAAO [13] = target: T1, BaAAO; assay: as above; format: biochemical; conditions: anaerobic, 50 mM sodium phosphate, pH 6.0, 25 °C
Description: as §3

[14] = substrate: O=C1C=CC(=O)C=C1; assay: Steady-state bi-substrate kinetics of alcohol oxidation; format: biochemical, Bjerkandera adusta; conditions: other: BaAAO, alcohol substrate 3-Cl-4-methoxybenzyl alcohol, 50 mM phosphate, pH 6.0, 25 °C
Description: as §1, §2

[15] = substrate: COc1ccc(CO)cc1Cl; assay: as above; format: biochemical, Bjerkandera adusta; conditions: other: BaAAO, 50 mM phosphate, pH 6.0, 25 °C
Description: as §1, §2

[16] = substrate: O=C1C=CC(=O)C=C1; assay: as above; format: biochemical, Pleurotus eryngii; conditions: other: PeAAO, alcohol substrate 3-Cl-4-methoxybenzyl alcohol, 50 mM phosphate, pH 6.0, 25 °C
Description: as §1, §2

[17] = substrate: COc1ccc(CO)cc1Cl; assay: as above; format: biochemical, Pleurotus eryngii; conditions: other: PeAAO, 50 mM phosphate, pH 6.0, 25 °C
Description: as §1, §2

[18] = alcohol substrate 3-Cl-4-methoxybenzyl alcohol, 50 mM phosphate, pH 6.0, 25 °C
[19] = BaAAO, alcohol substrate 3-Cl-4-methoxybenzyl alcohol, 50 mM phosphate, pH 6.0, 25 °C
[20] = 50 mM sodium phosphate, pH 6.0, 12 °C
[21] = anaerobic, 50 mM sodium phosphate, pH 6.0, 25 °C

Molecule: O=O [O2]
reverse rate constant (k rev), y-axis intercept of reoxidation (PeAAO [5]): 17 s⁻¹ | k ox(O2) (PeAAO [6]; PeAAO reduced by 3-Cl-4-methoxybenzyl alcohol, ref Ferreira et al. (2015)): 790 ± 20 ^b s^−1mM^−1 | k ox(O2) (PeAAO [6]; PeAAO reduced by 4-methoxybenzyl alcohol, ref Carro et al. (2018a)): 770 ± 40 ^a s^−1mM^−1 | K m(acceptor) (PeAAO [7]): 176 ± 1 µM | k cat/K m(acceptor) (PeAAO [7]): 1,139 ± 35 s^−1mM^−1 | K m(acceptor) (PeAAO [8]; [18]): 67 ± 2 µM | k cat/K m(acceptor) (PeAAO [8]; [18]): 647000 ± 22000 M⁻¹ s⁻¹ | K m(acceptor) (BaAAO [9]; [19]): 225 ± 8 µM | k cat/K m(acceptor) (BaAAO [9]; [19]): 312000 ± 12000 M⁻¹ s⁻¹ | K m(acceptor) (BaAAO [10]): 134 ± 5 µM | k cat/K m(acceptor) (BaAAO [10]): 549000 ± 23000 M⁻¹ s⁻¹

B1: BaAAO (Bjerkandera adusta) (protein)
chain: MVTFFTDASQLPATVYDFIVVGAGNAGNVVAARLTEDWKTTVLLIEAGISHEGIDSVAVPGLVLDNLPFSPVMWNYTTVPQAALDNRPIPYAKGRVVGGSSSVNFMEYTRSSNTEYDRWANLTGDAGWSWKNMEQYYLKNSRLVPPQDGHNTTGDVDPSVHGYGPVPLSLVGTPNPLDARMRAATQAPGAEFPFQLDMNGGDMIGFGIVQSTILNGERMHSGKAFLEPAMSRPNLHVLIENTVTRLIQTKTTNGLPSFMKVEFARDALSARSVVTATKEVVLSAGSIGTPQILMLSGIGDREELTAIGVNVTVDNPAVGKHLKDHPIMANYFQVNSNETYDDIFRDRDVSNTFLAQWKQNRTGPMVASPSTGLGFFRLPDNDTIFERFADPSPGEGAGHIELILSNQWTPEVQIPPATGSFLTVHAVVVSPASEGTVRLNSTNPFEFPLLDPQLLSSEFDQHTIIHAARLARQFVSSSPWADFVESRTGIIGDTDDDEADLLAAARQATVTIWHPMCTARMAPKGSTDGAIDPDLLVKGVSGLRVIDGAALPAIPATHPMAAIYLLAERGSDLIKQKWKL
Km [14]: 66 ± 12 µM | Km ([15]; BQ as e− acceptor (anaerobic)): 26 ± 4 µM | kcat ([15]; BQ as e− acceptor (anaerobic)): 23 ± 1 s⁻¹ | kcat/Km ([15]; BQ as e− acceptor (anaerobic)): 910000 ± 146000 M⁻¹ s⁻¹ | Km ([15]; O2 as e− acceptor): 94 ± 4 µM | kcat ([15]; O2 as e− acceptor): 70 ± 1 s⁻¹ | kcat/Km ([15]; O2 as e− acceptor): 747000 ± 32000 M⁻¹ s⁻¹

B2: PeAAO (Pleurotus eryngii) (protein)
chain: ADFDYVVVGAGNAGNVVAARLTEDPDVSVLVLEAGVSDENVLGAEAPLLAPGLVPNSIFDWNYTTTAQAGYNGRSIAYPRGRMLGGSSSVHYMVMMRGSTEDFDRYAAVTGDEGWNWDNIQQFVRKNEMVVPPADNHNTSGEFIPAVHGTNGSVSISLPGFPTPLDDRVLATTQEQSEEFFFNPDMGTGHPLGISWSIASVGNGQRSSSSTAYLRPAQSRPNLSVLINAQVTKLVNSGTTNGLPAFRCVEYAEQEGAPTTTVCAKKEVVLSAGSVGTPILLQLSGIGDENDLSSVGIDTIVNNPSVGRNLSDHLLLPAAFFVNSNQTFDNIFRDSSEFNVDLDQWTNTRTGPLTALIANHLAWLRLPSNSSIFQTFPDPAAGPNSAHWETIFSNQWFHPAIPRPDTGSFMSVTNALISPVARGDIKLATSNPFDKPLINPQYLSTEFDIFTMIQAVKSNLRFLSGQAWADFVIRPFDPRLRDPTDDAAIESYIRDNANTIFHPVGTASMSPRGASWGVVDPDLKVKGVDGLRIVDGSILPFAPNAHTQGPIYLVGKQGADLIKADQ
Km [16]: 29 ± 2 µM | Km ([17]; BQ as e− acceptor (anaerobic)): 4 ± 1 µM | kcat ([17]; BQ as e− acceptor (anaerobic)): 21 ± 1 s⁻¹ | kcat/Km ([17]; BQ as e− acceptor (anaerobic)): 5,874 ± 481 s^−1mM^−1 | Km ([17]; O2 as e− acceptor): 11 ± 1 µM | kcat ([17]; O2 as e− acceptor): 43 ± 1 s⁻¹ | kcat/Km ([17]; O2 as e− acceptor): 3,806 ± 122 s^−1mM^−1

Second part, led by results:

k on slower than that of 3-Cl-4-methoxybenzoic acid (BaAAO [1]): ~5 fold | Kd (BaAAO [2]): 1810 ± 197 µM | k off (BaAAO [2]; pH 6): 18 ± 2 s⁻¹ | k on (BaAAO [2]; pH 6): 10000 ± 1000 M⁻¹ s⁻¹ | k on slower than that of 3-Cl-4-methoxybenzoic acid (PeAAO [3]): approximately 2 fold
Molecule: COc1ccc(C(=O)O)cc1 [4-Methoxybenzoic acid, 4-methoxybenzoic acid]
k off (PeAAO [4]; 50 mM sodium phosphate): 3 ± 1 s⁻¹ | k on (PeAAO [4]; 50 mM sodium phosphate): 18000 ± 1000 M⁻¹ s⁻¹ | Kd (PeAAO [4]; K d = k off/k on, read-out: K d(acid)): 149 ± 10 µM

k off (BaAAO [1]; [20]): 13 ± 1 s⁻¹ | k on (BaAAO [1]; [20]): 47000 ± 2000 M⁻¹ s⁻¹ | Kd (BaAAO [1]; read-out: K d(acid), K d = k off/k on, pH 6.0, 12 °C): 276 ± 38 µM | k on (PeAAO [3]; [20]): 37000 ± 1000 M⁻¹ s⁻¹ | k off (PeAAO [3]; 50 mM sodium phosphate, pH 6.0, 12 °C, nd = not detected): no dissociation
Molecule: COc1ccc(C(=O)O)cc1Cl [3-Cl-4-methoxybenzoic acid]

k cat lower than for the other substrate (4-methoxybenzyl alcohol) (PeAAO [8]): 4 fold | turnover of BaAAO higher than PeAAO (BaAAO [9]; O2 as electron acceptor): 2 fold | reduced form of the enzyme during turnover (BaAAO [11]): ≤ 60% | k red (PeAAO [12]; [21]): 96 ± 3 s⁻¹ | k red/K d(alcohol) (PeAAO [12]; [21]): 4,486 ± 725 s^−1mM^-1 | Kd (PeAAO [12]; anaerobic, 50 mM sodium phosphate, pH 6.0, 25 °C, read-out: K d(alcohol)): 21 ± 3 µM | k red higher than k cat (PeAAO [12]; turnover with BQ): 4 fold | k red higher than k cat (PeAAO [12]; turnover with O2): 2 fold | k red (BaAAO [13]): 121 ± 11 s⁻¹ | k red/K d(alcohol) (BaAAO [13]): 404000 ± 127000 M⁻¹ s⁻¹ | Kd (BaAAO [13]; read-out: K d(alcohol)): 300 ± 91 µM
Molecule: COc1ccc(CO)cc1Cl [3-Cl-4-methoxybenzyl, 3-chloro-4-methoxybenzyl alcohol]
